The values below come from patent US9757375B2, “Compounds that inhibit human DNA ligases and methods of treating cancer” (University of Maryland, Baltimore, priority 2007, dated 2017).

Entries after “also recorded” stand apart in the source; their conditions may differ. Read-outs that look alike come from different tables or passages of the source.

In assay [1] the target is T1, hLigI (Homo sapiens, UniProt P18858).
T1 construct: made in house
Put plainly: High-throughput fluorescence-based DNA joining (ligation) assay. In kind it is biochemical. To be noted: for inhibition of hLigI (DNA ligase I), in words: in vitro screen, 100 μmol/L, the 15 hLigI inhibitors inhibited by >50%. The gist of the method: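 Nicked DNA substrate (10 pmol) was incubated with 0.25 pmol hLigI, with or without 100 μmol/L test compound, in duplicate. Afterwards the DNA was denatured and renatured with a 20-fold excess of unmodified oligonucleotide. Ligation forms an AF488/BHQ1 hairpin, read as reduced fluorescence at 518 nm.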

Assay [2] deals with T2, human DNA ligase III (Homo sapiens, UniProt P49916).
T2 sequence (P49916 1-862 isoform P49916-4): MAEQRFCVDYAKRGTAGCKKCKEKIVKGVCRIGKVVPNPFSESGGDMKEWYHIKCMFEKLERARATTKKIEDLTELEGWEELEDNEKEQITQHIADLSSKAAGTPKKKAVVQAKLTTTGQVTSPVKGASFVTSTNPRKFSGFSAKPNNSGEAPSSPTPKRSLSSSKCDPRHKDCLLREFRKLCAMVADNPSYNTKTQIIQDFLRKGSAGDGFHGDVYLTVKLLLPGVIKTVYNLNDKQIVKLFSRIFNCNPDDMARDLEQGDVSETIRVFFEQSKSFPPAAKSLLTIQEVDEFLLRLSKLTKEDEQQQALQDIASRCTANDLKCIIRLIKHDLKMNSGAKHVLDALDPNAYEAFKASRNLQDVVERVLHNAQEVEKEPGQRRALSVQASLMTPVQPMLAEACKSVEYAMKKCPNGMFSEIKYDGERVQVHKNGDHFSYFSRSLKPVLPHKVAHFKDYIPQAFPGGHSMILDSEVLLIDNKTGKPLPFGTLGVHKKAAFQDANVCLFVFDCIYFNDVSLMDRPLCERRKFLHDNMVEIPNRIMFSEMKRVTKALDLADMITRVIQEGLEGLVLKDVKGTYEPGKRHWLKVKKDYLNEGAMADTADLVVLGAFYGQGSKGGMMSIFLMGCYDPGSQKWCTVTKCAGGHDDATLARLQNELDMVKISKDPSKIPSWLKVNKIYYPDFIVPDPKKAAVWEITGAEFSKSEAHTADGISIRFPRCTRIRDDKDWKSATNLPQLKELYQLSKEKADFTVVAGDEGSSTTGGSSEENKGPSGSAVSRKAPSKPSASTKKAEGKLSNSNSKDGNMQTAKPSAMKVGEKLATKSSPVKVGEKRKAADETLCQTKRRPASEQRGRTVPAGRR
The assay is described as above. To be noted: for inhibition of human DNA ligase III, in words: in vitro screen. In kind it is biochemical. The gist of the method: (§1)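 Ligation joins an AF488-labelled and a BHQ1-labelled oligonucleotide. After denaturation and renaturation with a 20-fold excess of unlabelled competitor strand, the product forms a quenched hairpin, so joining is read as loss of 518 nm fluorescence. Ligase III used a nicked duplex; ligase IV used two duplexes with short complementary single-strand ends.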

The target in assay [3] is human DNA ligase IV (Homo sapiens, UniProt P49917). The assay is described as above. In kind it is biochemical. In a few lines: as §1
The target in assay [4] is T3, T4 DNA ligase (Enterobacteria phage T4, UniProt P00970).
T3 construct: purchased NEB
T3 sequence (P00970 1-487): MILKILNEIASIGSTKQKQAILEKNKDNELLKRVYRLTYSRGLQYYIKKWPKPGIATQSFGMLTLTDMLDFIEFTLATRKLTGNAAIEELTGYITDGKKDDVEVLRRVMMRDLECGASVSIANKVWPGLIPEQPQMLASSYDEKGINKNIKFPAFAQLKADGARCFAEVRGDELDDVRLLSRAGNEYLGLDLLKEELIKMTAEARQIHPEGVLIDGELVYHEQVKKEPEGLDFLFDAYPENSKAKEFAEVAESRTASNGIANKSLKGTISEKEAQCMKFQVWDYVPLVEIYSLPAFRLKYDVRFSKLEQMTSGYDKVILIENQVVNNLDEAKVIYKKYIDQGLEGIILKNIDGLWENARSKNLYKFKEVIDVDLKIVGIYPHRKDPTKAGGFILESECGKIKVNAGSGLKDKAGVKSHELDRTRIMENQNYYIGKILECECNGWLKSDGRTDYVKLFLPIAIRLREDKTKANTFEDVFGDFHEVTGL
Kind of assay: High-throughput fluorescence-based DNA joining assay, non-specific inhibitor control. In kind it is biochemical, bacteriophage T4. In a few lines:
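This counter-screen used a FRET-based DNA joining assay. Duplicate reactions held 10 pmol nicked DNA substrate and 10 units T4 DNA ligase, with or without 100 μmol/L compound. T4 ligase lacks the DNA-binding domain targeted in silico, so compounds inhibiting it were flagged as non-specific, likely DNA-binding.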

[5] abbreviates: 100 uM, read-out: % activity Inhibition hLigI 100 uM.
The mark [6] stands for this setting: 100 μM, read-out: In vitro % inhib hLigI 100.
[7] abbreviates: 100 μM, read-out: In vitro % inhib hLigIII 100.
[8] abbreviates: 100 uM, Ø not defined (0 in Table 5A).
Where [9] appears, read: 100 μM, read-out: In vitro % inhib hLigIV 100.
[10] abbreviates: 100 μM, read-out: In vitro % inhib T4 100.
[11] abbreviates: read-out: % activity Inhibition LigT4 100 uM.
The mark [12] stands for this setting: 100 μM, read-out: % of inhibition @ 100 μM (Helen's data) hLigI.
Setting [13] is: 100 uM, Ø not defined (0 in Table 5A), read-out: % activity Inhibition hLigIII 100 uM.
[14] abbreviates: read-out: % of inhibition @ 100 μM (Helen's data) hLigIII.
[15] abbreviates: 100 μM, read-out: % of inhibition @ 100 μM (Helen's data) hLigIV.

Chain of human DNA ligase IV (P49917 whole entry): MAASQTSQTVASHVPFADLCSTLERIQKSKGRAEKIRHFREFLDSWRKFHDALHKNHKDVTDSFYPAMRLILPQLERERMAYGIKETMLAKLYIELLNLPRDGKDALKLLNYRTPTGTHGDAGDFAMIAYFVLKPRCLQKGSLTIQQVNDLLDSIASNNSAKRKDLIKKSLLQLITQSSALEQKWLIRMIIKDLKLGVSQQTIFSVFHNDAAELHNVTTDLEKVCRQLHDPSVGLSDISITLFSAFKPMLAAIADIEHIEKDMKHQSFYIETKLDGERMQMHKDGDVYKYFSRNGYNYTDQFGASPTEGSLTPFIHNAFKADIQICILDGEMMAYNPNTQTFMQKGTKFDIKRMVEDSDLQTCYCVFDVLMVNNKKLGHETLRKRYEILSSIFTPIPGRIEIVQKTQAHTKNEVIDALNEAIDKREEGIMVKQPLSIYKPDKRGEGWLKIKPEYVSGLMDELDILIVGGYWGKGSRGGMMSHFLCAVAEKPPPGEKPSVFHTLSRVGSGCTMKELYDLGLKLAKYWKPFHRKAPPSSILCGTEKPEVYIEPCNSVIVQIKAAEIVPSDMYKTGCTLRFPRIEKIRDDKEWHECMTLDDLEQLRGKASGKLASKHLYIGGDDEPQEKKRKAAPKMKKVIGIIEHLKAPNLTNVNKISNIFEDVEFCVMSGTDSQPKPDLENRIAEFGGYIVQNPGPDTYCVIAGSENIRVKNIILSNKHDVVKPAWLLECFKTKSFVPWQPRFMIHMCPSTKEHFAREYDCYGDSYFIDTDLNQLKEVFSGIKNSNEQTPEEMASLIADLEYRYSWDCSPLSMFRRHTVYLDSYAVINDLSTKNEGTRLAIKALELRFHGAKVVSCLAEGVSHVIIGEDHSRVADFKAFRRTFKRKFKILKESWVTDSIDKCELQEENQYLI
Chain of human DNA ligase IV (Q13426 whole entry partner): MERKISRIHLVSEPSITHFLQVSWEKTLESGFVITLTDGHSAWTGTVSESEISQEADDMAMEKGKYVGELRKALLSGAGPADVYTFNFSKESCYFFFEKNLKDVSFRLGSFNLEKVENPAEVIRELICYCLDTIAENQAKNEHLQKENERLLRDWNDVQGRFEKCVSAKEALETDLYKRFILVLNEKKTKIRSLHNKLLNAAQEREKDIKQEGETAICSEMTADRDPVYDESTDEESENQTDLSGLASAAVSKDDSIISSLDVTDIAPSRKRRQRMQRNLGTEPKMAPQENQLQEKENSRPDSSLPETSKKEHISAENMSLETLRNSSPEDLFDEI
T1 sequence (P18858 whole entry): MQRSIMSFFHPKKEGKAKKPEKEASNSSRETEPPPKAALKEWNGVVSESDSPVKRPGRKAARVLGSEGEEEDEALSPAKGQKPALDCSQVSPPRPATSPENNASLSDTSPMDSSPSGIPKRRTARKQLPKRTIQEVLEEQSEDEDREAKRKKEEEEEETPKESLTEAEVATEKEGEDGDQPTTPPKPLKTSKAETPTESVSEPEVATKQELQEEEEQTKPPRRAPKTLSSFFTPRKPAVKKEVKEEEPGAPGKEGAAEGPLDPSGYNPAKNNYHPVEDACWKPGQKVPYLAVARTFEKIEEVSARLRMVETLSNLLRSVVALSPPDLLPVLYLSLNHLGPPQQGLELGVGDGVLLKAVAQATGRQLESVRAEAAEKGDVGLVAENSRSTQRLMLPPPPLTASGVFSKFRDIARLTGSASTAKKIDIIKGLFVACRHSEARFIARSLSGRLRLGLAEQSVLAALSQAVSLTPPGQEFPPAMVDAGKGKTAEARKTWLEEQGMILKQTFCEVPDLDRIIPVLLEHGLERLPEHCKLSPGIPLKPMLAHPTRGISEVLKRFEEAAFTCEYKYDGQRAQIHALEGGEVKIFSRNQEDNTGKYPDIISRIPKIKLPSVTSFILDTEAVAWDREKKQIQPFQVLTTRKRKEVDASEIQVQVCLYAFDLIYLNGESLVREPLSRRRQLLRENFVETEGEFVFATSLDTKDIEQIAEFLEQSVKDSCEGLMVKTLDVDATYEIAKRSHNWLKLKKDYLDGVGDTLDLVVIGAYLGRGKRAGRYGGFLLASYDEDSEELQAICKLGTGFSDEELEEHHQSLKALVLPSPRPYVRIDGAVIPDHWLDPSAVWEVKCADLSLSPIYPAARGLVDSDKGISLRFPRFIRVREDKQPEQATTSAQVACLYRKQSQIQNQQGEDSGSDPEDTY

On to `COc1ccc(-c2cnc3c(O)nc(O)nc3n2)cc1` [Compound 190], for which the inhibition at 100 µM in assay [1] (setting [5]) was found to be 52.5 ± 6.6%; in assay [1] (setting [6]) it was 53 ± 7%; in assay [2] (setting [7]), 0%; in assay [3] (setting [9]), 0%; in assay [4] (setting [10]) it was 5 ± 1%; in assay [4] (setting [11]), 5.4 ± 0.74%. For the same compound, the “inhibition of hLigI (DNA ligase I), in words” value (from here on “inhibition of hLigI”) in assay [1] is given as “inhibited hLigI; also recorded: specific for DNA ligase I”. Also, in assay [2] (setting [8]), the “% activity Inhibition hLigIII 100 uM” value is on record as “Ø”. Besides, the “% activity Inhibition hLigIV 100 uM” value in assay [3] (setting [8]) is listed as “Ø”.
Regarding `Cc1oc(C(=O)O)cc1CSCc1cc(C(=O)O)c(C)o1` [Compound 197], the inhibition at 100 µM was 91 ± 6.9% in assay [1] (setting [5]); 91% in assay [1] (setting [12]); 91 ± 7% in assay [1] (setting [6]); 96 ± 4% in assay [2] (setting [7]); 96.5 ± 3.5% in assay [2] (setting [13]); 97% in assay [2] (setting [14]). Besides, the inhibition at 100 µM was 57% in assay [3] (setting [15]); 57 ± 3% in assay [3] (setting [9]); over 60% in assay [3] (100 uM, Ø not defined (0 in Table 5A), read-out: % activity Inhibition hLigIV 100 uM); 24 ± 6% in assay [4] (setting [10]); 24.4 ± 5.8% in assay [4] (setting [11]). Moreover, the “inhibition of hLigI” value in assay [1] is given as “inhibited hLigI; also recorded: inhibit all three human DNA ligases”. In addition, in assay [2], the “inhibition of human DNA ligase III, in words” value was “inhibit all three human DNA ligases”. The “inhibition of human DNA ligase IV, in words” value in assay [3] (in vitro screen) is on record as “inhibit all three human DNA ligases”.
With `O=C(c1ccc(O)cc1)c1ccccc1O` [Compound 200], the inhibition at 100 µM in assay [1] (setting [5]) is 50.7 ± 10.9%; in assay [1] (setting [12]) it was 51%; in assay [1] (setting [6]), 51 ± 11%; in assay [2] (setting [7]), 60 ± 5%; in assay [2] (setting [13]) it was 59.5 ± 5.2%; in assay [2] (setting [14]) it was 60%. Also, the inhibition at 100 µM is under 20% in assay [3] (setting [15]), 0% in assay [3] (setting [9]), 0% in assay [4] (setting [10]) and 0% in assay [4] (setting [11]). In addition, in assay [1], the “inhibition of hLigI” value is “inhibited hLigI; also recorded: specifically inhibit DNA ligases I and III”. For the same compound, in assay [2], the “inhibition of human DNA ligase III, in words” value was “specifically inhibit DNA ligases I and III”. For the same compound, the “% activity Inhibition hLigIV 100 uM” value in assay [3] (setting [8]) is “Ø”.
As for `CCCCC(=O)c1ccc(O)cc1O` [Compound 213], the inhibition at 100 µM was 36.4 ± 8.6% in assay [1] (setting [5]); 36 ± 9% in assay [1] (setting [6]); 25 ± 1% in assay [2] (setting [7]); 25.2 ± 0.46% in assay [2] (setting [13]); 0% in assay [3] (setting [9]); 0% in assay [4] (setting [10]). Besides, the “inhibition of hLigI” value in assay [1] is “specifically inhibit DNA ligases I and III”. Moreover, the “inhibition of human DNA ligase III, in words” value in assay [2] was “specifically inhibit DNA ligases I and III”. Moreover, the “% activity Inhibition hLigIV 100 uM” value in assay [3] (setting [8]) was “Ø”.
